Data on three molecules can be found in patent US12336977B2, “Nitenin analogue compounds and their use in the treatment of chronic and acute pain” (SEA4US-BIOTECNOLOGIA E RECURSOS MARINHOS, LDA., priority 2019, dated 2025).

Assay [1] concerns K+ currents of small diameter dorsal-root ganglion neuron. As to the kind of experiment: voltage dependence of steady state of inactivation of K+ currents in sdDRGn. To be noted: sdDRGn. The format is cell-based, rat. An excerpt: One can observe a shift to hyperpolarized values during the nitenin treatment. The relationships were better fit with the sum of two Boltzmann functions, showing that in both conditions there are two components: one more hyperpolarized component (component 1) and one other more depolarized component (component 2).
One can observe a shift to hyperpolarized values during the treatment with the compound of formula VI. The relationships were better fit with the sum of two Boltzmann functions, showing that in both conditions there are two components: one more hyperpolarized component (component 1) and one other more depolarized component (component 2).
One can observe a shift to hyperpolarized values during the treatment with the compound of formula VII. The relationships were better fit with the sum of two Boltzmann functions, showing that in both conditions there are two components: one more hyperpolarized component (component 1) and one other more depolarized component (component 2).
One can observe a shift to hyperpolarized values during the treatment with the compound of formula VIII. The relationships were better fit with the sum of two Boltzmann functions, showing that in both conditions there are two components: one more hyperpolarized component (component 1) and one other more depolarized component (component 2).
For the electrophysiological recordings of the ex vivo material, voltage-clamp recordings were performed on neurons isolated from rat DRGs (and TGs). Recordings were performed from the soma that often contained the proximal fraction of axon, 1 hour after the end of the cell isolation process (includes enzymatic and mechanical treatment).

For assay [2], the system named is voltage activated K+ currents (Islow, Ifast) of small diameter Dorsal Root Ganglia neurons (sdDRGns). As to the kind of experiment: whole-cell voltage-clamp of voltage activated K+ currents in sdDRGns. The assay is classed as cell-based, rat.

As to `O=C1OC(CO)CC1=CCCc1ccoc1` (centres unmarked) [compound of formula VIII-A], the “Vh2 of steady state inactivation” value in assay [1] (6.5 μg/ml, 29.4 μM, control −18.1) was −35.5 mV. Also, the “Vh1 of steady state inactivation” value in assay [1] (6.5 μg/ml, 29.4 μM, control −53.6) is listed as −88.9 mV. In addition, the “time constant τ of the sensitive current (current subtraction, single-exponential fit)” value in assay [2] (6.5 μg/ml, 29.4 μM) is on record as approximately 450 ms.
With `C/C(=C\C1OC(=O)CC1O)CCCc1ccoc1` (centres unmarked) [compound of formula VII], the “Vh2 of steady state inactivation” value in assay [1] (0.1 μg/ml, 399 nM, control −13.7) was −32.4 mV. Further, in assay [1] (0.1 μg/ml, 399 nM, control −64.1), the “Vh1 of steady state inactivation” value is recorded as −92.6 mV.
`C=CC1OC(=O)CC1O` (centres unmarked) [compound of formula VI]: in assay [1] (10 μg/ml, 77.9 μM, control −23.9), the “Vh2 of steady state inactivation” value is −40.5 mV. In addition, the “Vh1 of steady state inactivation” value in assay [1] (10 μg/ml, 77.9 μM, control −91.0) is reported as −102.9 mV. The “time constant τ of the sensitive current (current subtraction, single-exponential fit)” value in assay [2] (10 μg/ml, 77.9 μM) was approximately 795 ms.
